Laboratory results as given in EP0920487B1, “COMPOSITION AND METHOD FOR INHIBITING THE DEPOSITION OF PROTEIN ON CONTACT LENS” (BAUSCH & LOMB INCORPORATED, priority 1996, dated 1997).

tested on: lysozyme; assay: SPE protein-binding inhibition screening (Sep-Pak Accell Plus CM solid-phase extraction cartridge, absorbance of eluent at 280 nm); set-up: species or system hen; details: test compound 1% in BBS; then 0.05% lysozyme; corrected for BBS control
Description: In another aspect of the present invention, selected polyquaternium polymers simultaneously satisfy the dual requirements of both (i) meeting ophthalmological safety standards for an in-the-eye contact-lens solution at concentrations of 1000 ppm and (ii) inhibiting protein binding to a contact lens. The safety requirements can be determined according to the so-called NRDR (neutral red dye release) assay for cytotoxicity described in the Examples. In particular, the polyquaternium polymer should have an NRDR assay rating of L or less at a level of 1000 ppm., preferably L or less at a level of 500 ppm (dry weight of polymer, correcting for water content of the available polymer material). […] The material in this extraction cartridge is a weak cation exchanger that contains a silica support coated with a polymer having carboxymethyl groups. This extraction cartridge is first treated with a 1.0% solution of the polyquaternium polymer in borate-buffered saline followed by exposing the solid phase extraction cartridge to 0.05% lysozyme. The amount of protein-binding inhibition is determined compared to a control solution. […] Preferably, the SPE protein-binding inhibition is at least 20%, more preferably at least 30%, most preferably at least 35%.
This Experiment illustrates the measurement of the protein-displacing effects of various polyquaternium polymers. Among the polyquaternium polymers tested, the polymers varied with respect to the comonomers making up the polymer, the respective proportion of comonomers, and/or the molecular weight of the polymer. The following screening procedure was used. […] The absorbance measurements were conducted by (1) taking an initial absorbance with BBS in a 1 cm cuvette, which reading should be 0.000, re-autozeroing if necessary with BBS, (2) rinsing and filling the cuvette with 0.05% lysozyme solution and reading the absorbance to obtain the "maximum inhibition value', and (3) reading the absorbances for the solutions in the test tubes used to collect the eluents from the test cartridges. […]

| Substance | Average % SPE Binding Inhibition |
| --- | --- |
| lauryl methyl gluceth-10 hydroxy-propyl dimonium chloride [Gluquat® 125] | 2% |
| benzalkonium chloride [BAK] | 3% |
| benzalkonium bromide [BAB] | 8% |
